Laboratory results as given in the kinase profiling compilation of Christmann-Franck et al. (2016).

Experiments:
Assay in all cases: radiometric filter-binding kinase assay
[1] = test system: AKT1 (human), P31749 [S473D]
[2] = biological target: BRSK2 (human) (UniProt Q8IWQ3)
[3] = biological target: CSNK2A1 (human) (UniProt P68400)
[4] = biological target: DAPK1 (human) (UniProt P53355)
[5] = biological target: DYRK1A (human) (UniProt Q13627)
[6] = biological target: DYRK3 (human) (UniProt O43781)
[7] = biological target: EPHB3 (human) (UniProt P54753)
[8] = biological target: IKBKB (human) (UniProt O14920)
[9] = biological target: IKBKE (human) (UniProt Q14164)
[10] = biological target: MAP2K6 (human) (UniProt P52564)
[11] = biological target: MAP3K11 (human) (UniProt Q16584)
[12] = biological target: MAP3K7 TAB1 (human) (UniProt Q15750+O43318)
[13] = biological target: MAPK11 (human) (UniProt Q15759)
[14] = biological target: MAPK12 (human) (UniProt P53778)
[15] = biological target: MAPK14 (human) (UniProt Q16539)
[16] = biological target: MAPK3 (human) (UniProt P27361)
[17] = biological target: MAPK8 (human) (UniProt P45983)
[18] = biological target: MAPKAPK3 (human) (UniProt Q16644)
[19] = biological target: MAPKAPK5 (human) (UniProt Q8IW41)
[20] = biological target: MKNK2 (human) (UniProt Q9HBH9)
[21] = biological target: NTRK1 (human) (UniProt P04629)
[22] = biological target: PAK4 (human) (UniProt O96013)
[23] = biological target: PIM1 (human) (UniProt P11309)
[24] = biological target: PIM2 (human) (UniProt Q9P1W9)
[25] = biological target: PIM3 (human) (UniProt Q86V86)
[26] = biological target: PLK1 (human) (UniProt P53350)
[27] = test system: ROCK2 (rat); conditions: accession and sequence are those of the human protein
[28] = biological target: RPS6KA1 KD1 KD2 (human) (UniProt Q15418)
[29] = biological target: RPS6KA3 KD1 KD2 (human) (UniProt P51812)
[30] = test system: RPS6KB1 (human), P23443 [T412E]
[31] = test system: SGK1 (human), O00141 [S422D]
[32] = biological target: STK3 (human) (UniProt Q13188)
[33] = biological target: TBK1 (human) (UniProt Q9UHD2)
[34] = biological target: IRAK4 (human) (UniProt Q9NWZ3)

PIM2 (human), sequence (Q9P1W9 whole entry, looked up): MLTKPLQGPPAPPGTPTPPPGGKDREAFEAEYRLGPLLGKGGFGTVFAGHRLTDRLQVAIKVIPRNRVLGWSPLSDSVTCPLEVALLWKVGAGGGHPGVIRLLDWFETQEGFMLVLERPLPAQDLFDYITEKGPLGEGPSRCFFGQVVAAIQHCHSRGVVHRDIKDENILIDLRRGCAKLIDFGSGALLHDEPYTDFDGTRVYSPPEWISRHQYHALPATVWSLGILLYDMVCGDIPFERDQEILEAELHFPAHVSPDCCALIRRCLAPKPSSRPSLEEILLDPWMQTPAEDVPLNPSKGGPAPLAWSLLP
CSNK2A1 (human), sequence (P68400 whole entry, looked up): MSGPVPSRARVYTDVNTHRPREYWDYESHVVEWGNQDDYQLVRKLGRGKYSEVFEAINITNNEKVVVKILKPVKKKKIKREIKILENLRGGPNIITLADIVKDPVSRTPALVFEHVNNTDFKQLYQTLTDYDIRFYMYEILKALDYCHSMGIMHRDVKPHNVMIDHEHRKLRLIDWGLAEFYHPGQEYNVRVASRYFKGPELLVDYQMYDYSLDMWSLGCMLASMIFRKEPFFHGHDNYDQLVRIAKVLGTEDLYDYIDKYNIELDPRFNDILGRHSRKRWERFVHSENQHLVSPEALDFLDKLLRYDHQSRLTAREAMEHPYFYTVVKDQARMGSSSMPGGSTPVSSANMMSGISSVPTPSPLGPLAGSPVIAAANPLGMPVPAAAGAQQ
MAPK3 (human), sequence (P27361 whole entry, looked up): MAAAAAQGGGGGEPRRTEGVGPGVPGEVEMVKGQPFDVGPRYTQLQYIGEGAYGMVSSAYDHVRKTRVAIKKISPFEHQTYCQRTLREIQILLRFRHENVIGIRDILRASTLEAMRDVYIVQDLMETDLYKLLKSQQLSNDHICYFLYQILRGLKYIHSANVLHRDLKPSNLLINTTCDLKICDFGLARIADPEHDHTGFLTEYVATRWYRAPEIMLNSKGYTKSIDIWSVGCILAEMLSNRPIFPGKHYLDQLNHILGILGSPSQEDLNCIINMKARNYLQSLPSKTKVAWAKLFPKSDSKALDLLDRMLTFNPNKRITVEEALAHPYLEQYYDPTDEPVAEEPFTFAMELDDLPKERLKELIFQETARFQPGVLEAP
SGK1 (human), O00141 [S422D], sequence (O00141 whole entry S422D, looked up): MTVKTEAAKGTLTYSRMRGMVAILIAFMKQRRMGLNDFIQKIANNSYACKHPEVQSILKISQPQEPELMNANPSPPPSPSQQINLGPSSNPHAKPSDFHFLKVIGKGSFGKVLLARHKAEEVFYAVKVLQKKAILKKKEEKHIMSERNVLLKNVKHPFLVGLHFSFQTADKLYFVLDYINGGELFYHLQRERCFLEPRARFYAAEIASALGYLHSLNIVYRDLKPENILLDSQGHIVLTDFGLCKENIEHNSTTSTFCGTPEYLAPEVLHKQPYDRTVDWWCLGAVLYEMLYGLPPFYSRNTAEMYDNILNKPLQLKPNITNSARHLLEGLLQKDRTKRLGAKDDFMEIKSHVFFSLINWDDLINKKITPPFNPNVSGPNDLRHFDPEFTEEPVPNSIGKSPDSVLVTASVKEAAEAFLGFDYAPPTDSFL
STK3 (human), sequence (Q13188 whole entry, looked up): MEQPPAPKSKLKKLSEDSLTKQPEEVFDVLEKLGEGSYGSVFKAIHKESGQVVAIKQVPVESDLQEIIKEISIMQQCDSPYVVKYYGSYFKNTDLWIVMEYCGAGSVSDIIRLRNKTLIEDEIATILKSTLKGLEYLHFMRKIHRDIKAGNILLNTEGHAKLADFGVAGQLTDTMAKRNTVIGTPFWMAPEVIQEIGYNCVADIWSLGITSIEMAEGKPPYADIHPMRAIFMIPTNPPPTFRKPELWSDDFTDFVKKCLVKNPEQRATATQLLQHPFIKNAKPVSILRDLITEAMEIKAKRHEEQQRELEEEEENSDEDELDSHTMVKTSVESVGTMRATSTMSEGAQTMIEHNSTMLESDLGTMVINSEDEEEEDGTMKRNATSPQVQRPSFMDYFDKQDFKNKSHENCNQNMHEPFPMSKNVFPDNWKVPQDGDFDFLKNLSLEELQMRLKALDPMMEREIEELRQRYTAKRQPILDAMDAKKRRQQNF
DYRK3 (human), sequence (O43781 whole entry, looked up): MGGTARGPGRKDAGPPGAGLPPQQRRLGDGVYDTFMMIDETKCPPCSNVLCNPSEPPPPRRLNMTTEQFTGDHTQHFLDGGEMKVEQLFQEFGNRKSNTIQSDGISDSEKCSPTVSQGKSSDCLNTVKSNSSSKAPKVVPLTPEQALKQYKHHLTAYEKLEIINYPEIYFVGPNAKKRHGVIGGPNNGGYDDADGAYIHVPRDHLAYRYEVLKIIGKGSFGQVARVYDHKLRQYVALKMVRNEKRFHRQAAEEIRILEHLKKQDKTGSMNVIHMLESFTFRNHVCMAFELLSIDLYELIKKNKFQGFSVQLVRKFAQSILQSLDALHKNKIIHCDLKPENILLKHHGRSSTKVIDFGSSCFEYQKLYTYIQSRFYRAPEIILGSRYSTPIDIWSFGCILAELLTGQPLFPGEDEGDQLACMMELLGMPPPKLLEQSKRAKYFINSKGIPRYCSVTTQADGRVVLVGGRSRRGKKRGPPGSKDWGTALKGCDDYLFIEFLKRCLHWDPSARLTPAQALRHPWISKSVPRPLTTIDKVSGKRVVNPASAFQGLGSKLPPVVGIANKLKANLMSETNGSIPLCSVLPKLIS
MAP3K11 (human), sequence (Q16584 whole entry, looked up): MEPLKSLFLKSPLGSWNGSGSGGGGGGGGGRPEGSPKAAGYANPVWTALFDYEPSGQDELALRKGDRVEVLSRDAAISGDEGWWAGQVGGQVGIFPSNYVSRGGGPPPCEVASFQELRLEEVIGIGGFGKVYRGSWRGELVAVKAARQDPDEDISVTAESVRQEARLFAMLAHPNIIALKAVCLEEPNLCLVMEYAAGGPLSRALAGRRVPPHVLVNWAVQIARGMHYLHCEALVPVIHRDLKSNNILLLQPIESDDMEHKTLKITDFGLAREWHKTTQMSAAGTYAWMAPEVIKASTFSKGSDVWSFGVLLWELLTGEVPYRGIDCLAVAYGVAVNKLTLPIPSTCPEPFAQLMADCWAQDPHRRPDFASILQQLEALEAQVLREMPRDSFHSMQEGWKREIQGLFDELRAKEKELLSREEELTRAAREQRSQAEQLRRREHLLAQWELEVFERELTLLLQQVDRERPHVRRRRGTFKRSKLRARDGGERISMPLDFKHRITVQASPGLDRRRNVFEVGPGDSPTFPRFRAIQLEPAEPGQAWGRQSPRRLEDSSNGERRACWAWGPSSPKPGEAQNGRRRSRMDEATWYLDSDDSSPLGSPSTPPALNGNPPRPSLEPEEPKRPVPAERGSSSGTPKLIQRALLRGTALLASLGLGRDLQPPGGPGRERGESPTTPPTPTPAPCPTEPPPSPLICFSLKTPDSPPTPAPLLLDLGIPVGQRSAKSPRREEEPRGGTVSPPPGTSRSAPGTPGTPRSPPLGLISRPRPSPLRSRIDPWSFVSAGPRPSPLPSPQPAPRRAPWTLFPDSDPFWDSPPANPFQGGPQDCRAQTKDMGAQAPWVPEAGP
MAPK14 (human), sequence (Q16539 whole entry, looked up): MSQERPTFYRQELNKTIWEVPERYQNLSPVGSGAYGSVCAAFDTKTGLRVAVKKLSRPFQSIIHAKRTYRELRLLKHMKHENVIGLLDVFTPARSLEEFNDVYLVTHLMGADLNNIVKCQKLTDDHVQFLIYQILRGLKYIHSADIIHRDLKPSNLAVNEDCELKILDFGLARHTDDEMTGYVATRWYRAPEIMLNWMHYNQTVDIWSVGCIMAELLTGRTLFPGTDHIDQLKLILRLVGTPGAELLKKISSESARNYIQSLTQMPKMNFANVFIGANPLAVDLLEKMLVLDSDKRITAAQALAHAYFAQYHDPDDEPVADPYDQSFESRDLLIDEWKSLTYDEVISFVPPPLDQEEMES
MKNK2 (human), sequence (Q9HBH9 whole entry, looked up): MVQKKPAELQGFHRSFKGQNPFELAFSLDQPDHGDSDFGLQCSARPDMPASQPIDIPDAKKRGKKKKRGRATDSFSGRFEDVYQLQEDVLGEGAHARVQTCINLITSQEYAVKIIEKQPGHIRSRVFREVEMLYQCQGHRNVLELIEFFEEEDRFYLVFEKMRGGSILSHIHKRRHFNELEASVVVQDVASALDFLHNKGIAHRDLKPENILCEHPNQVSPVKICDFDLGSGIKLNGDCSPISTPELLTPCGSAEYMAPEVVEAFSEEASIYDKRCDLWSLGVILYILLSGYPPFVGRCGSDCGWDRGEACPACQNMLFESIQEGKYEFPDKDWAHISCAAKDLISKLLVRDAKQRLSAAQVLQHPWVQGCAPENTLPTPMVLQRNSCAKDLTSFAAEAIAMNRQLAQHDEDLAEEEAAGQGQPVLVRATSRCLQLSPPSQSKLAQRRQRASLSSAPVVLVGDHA
MAPK8 (human), sequence (P45983 whole entry, looked up): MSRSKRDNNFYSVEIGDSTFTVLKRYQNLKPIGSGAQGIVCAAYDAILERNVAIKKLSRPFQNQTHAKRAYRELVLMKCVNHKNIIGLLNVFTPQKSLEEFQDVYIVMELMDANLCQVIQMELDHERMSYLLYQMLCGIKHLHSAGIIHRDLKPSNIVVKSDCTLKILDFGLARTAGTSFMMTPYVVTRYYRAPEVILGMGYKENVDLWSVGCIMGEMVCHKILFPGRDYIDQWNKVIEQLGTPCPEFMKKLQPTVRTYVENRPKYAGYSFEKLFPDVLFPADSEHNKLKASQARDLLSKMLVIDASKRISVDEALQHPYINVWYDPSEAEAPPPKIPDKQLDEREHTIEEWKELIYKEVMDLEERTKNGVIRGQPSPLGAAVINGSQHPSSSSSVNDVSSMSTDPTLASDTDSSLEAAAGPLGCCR

Compound: Cc1cc(N=Nc2cc(S(=O)(=O)O)c(C)cc2C)c(N)cc1O
- residual activity ([1]; compound 100.0 µM): 108%
- residual activity ([2]; compound 100.0 µM): 46%
- residual activity ([3]; compound 100.0 µM): 51%
- residual activity ([4]; compound 100.0 µM): 82%
- residual activity ([5]; compound 100.0 µM): 113%
- residual activity ([6]; compound 100.0 µM): 65%
- residual activity ([7]; compound 100.0 µM): 48%
- residual activity ([8]; compound 100.0 µM): 97%
- residual activity ([9]; compound 100.0 µM): 94%
- residual activity ([10]; compound 100.0 µM): 113%
- residual activity ([11]; compound 100.0 µM): 83%
- residual activity ([12]; compound 100.0 µM): 31%
- residual activity ([13]; compound 100.0 µM): 58%
- residual activity ([14]; compound 100.0 µM): 108%
- residual activity ([15]; compound 100.0 µM): 58%
- residual activity ([16]; compound 100.0 µM): 98%
- residual activity ([17]; compound 100.0 µM): 113%
- residual activity ([18]; compound 100.0 µM): 62%
- residual activity ([19]; compound 100.0 µM): 70%
- residual activity ([20]; compound 100.0 µM): 100%
- residual activity ([21]; compound 100.0 µM): 65%
- residual activity ([22]; compound 100.0 µM): 70%
- residual activity ([23]; compound 100.0 µM): 62%
- residual activity ([24]; compound 100.0 µM): 58%
- residual activity ([25]; compound 100.0 µM): 45%
- residual activity ([26]; compound 100.0 µM): 79%
- residual activity ([27]; compound 100.0 µM): 105%
- residual activity ([28]; compound 100.0 µM): 99%
- residual activity ([29]; compound 100.0 µM): 80%
- residual activity ([30]; compound 100.0 µM): 102%
- residual activity ([31]; compound 100.0 µM): 52%
- residual activity ([32]; compound 100.0 µM): 81%
- residual activity ([33]; compound 100.0 µM): 94%

Compound: C=CC(=O)N1CCC[C@@H](n2nc(-c3ccc(Oc4ccccc4)cc3)c3c(N)ncnc32)C1
- residual activity ([1]; compound 0.1 µM): 79%
- residual activity ([1]; compound 1.0 µM): 97%
- residual activity ([1]; compound 10.0 µM): 78%
- residual activity ([2]; compound 0.1 µM): 100%
- residual activity ([2]; compound 1.0 µM): 91%
- residual activity ([2]; compound 10.0 µM): 61%
- residual activity ([3]; compound 0.1 µM): 104%
- residual activity ([3]; compound 1.0 µM): 115%
- residual activity ([3]; compound 10.0 µM): 111%
- residual activity ([4]; compound 0.1 µM): 95%
- residual activity ([4]; compound 1.0 µM): 95%
- residual activity ([4]; compound 10.0 µM): 84%
- residual activity ([5]; compound 0.1 µM): 112%
- residual activity ([5]; compound 1.0 µM): 105%
- residual activity ([5]; compound 10.0 µM): 87%
- residual activity ([6]; compound 0.1 µM): 93%
- residual activity ([6]; compound 1.0 µM): 86%
- residual activity ([6]; compound 10.0 µM): 68%
- residual activity ([7]; compound 0.1 µM): 99%
- residual activity ([7]; compound 1.0 µM): 96%
- residual activity ([7]; compound 10.0 µM): 51%
- residual activity ([8]; compound 0.1 µM): 94%
- residual activity ([8]; compound 1.0 µM): 107%
- residual activity ([8]; compound 10.0 µM): 90%
- residual activity ([9]; compound 0.1 µM): 100%
- residual activity ([9]; compound 1.0 µM): 95%
- residual activity ([9]; compound 10.0 µM): 66%
- residual activity ([34]; compound 0.1 µM): 103%
- residual activity ([34]; compound 1.0 µM): 102%
- residual activity ([34]; compound 10.0 µM): 86%
- residual activity ([10]; compound 0.1 µM): 82%
- residual activity ([10]; compound 1.0 µM): 97%
- residual activity ([10]; compound 10.0 µM): 61%
- residual activity ([11]; compound 0.1 µM): 87%
- residual activity ([11]; compound 1.0 µM): 65%
- residual activity ([11]; compound 10.0 µM): 28%
- residual activity ([12]; compound 0.1 µM): 102%
- residual activity ([12]; compound 1.0 µM): 106%
- residual activity ([12]; compound 10.0 µM): 66%
- residual activity ([13]; compound 1.0 µM): 103%
- residual activity ([13]; compound 10.0 µM): 68%
- residual activity ([14]; compound 0.1 µM): 89%
- residual activity ([14]; compound 1.0 µM): 112%
- residual activity ([15]; compound 0.1 µM): 99%
- residual activity ([15]; compound 1.0 µM): 103%
- residual activity ([15]; compound 10.0 µM): 101%
- residual activity ([16]; compound 0.1 µM): 83%
- residual activity ([16]; compound 10.0 µM): 84%
- residual activity ([17]; compound 0.1 µM): 98%
- residual activity ([17]; compound 1.0 µM): 98%
- residual activity ([17]; compound 10.0 µM): 75%
- residual activity ([18]; compound 0.1 µM): 109%
- residual activity ([18]; compound 1.0 µM): 109%
- residual activity ([19]; compound 0.1 µM): 101%
- residual activity ([19]; compound 1.0 µM): 107%
- residual activity ([19]; compound 10.0 µM): 83%
- residual activity ([20]; compound 0.1 µM): 106%
- residual activity ([20]; compound 10.0 µM): 67%
- residual activity ([21]; compound 0.1 µM): 64%
- residual activity ([21]; compound 1.0 µM): 46%
- residual activity ([21]; compound 10.0 µM): 13%
- residual activity ([22]; compound 0.1 µM): 93%
- residual activity ([22]; compound 1.0 µM): 85%
- residual activity ([22]; compound 10.0 µM): 42%
- residual activity ([23]; compound 0.1 µM): 98%
- residual activity ([23]; compound 1.0 µM): 95%
- residual activity ([23]; compound 10.0 µM): 81%
- residual activity ([24]; compound 0.1 µM): 99%
- residual activity ([24]; compound 1.0 µM): 100%
- residual activity ([24]; compound 10.0 µM): 97%
- residual activity ([25]; compound 0.1 µM): 94%
- residual activity ([25]; compound 1.0 µM): 96%
- residual activity ([25]; compound 10.0 µM): 88%
- residual activity ([26]; compound 0.1 µM): 88%
- residual activity ([26]; compound 1.0 µM): 95%
- residual activity ([26]; compound 10.0 µM): 76%
- residual activity ([27]; compound 0.1 µM): 93%
- residual activity ([27]; compound 1.0 µM): 111%
- residual activity ([27]; compound 10.0 µM): 69%
- residual activity ([28]; compound 0.1 µM): 94%
- residual activity ([28]; compound 1.0 µM): 101%
- residual activity ([28]; compound 10.0 µM): 46%
- residual activity ([29]; compound 0.1 µM): 103%
- residual activity ([29]; compound 1.0 µM): 106%
- residual activity ([29]; compound 10.0 µM): 68%
- residual activity ([30]; compound 0.1 µM): 93%
- residual activity ([30]; compound 1.0 µM): 86%
- residual activity ([30]; compound 10.0 µM): 66%
- residual activity ([31]; compound 0.1 µM): 95%
- residual activity ([31]; compound 1.0 µM): 107%
- residual activity ([31]; compound 10.0 µM): 84%
- residual activity ([32]; compound 0.1 µM): 88%
- residual activity ([32]; compound 1.0 µM): 65%
- residual activity ([32]; compound 10.0 µM): 41%
- residual activity ([33]; compound 0.1 µM): 102%
- residual activity ([33]; compound 1.0 µM): 113%
- residual activity ([33]; compound 10.0 µM): 90%
